Measured values taken from the supplement of paper PMC10307832.

Columns and labels:
Assay in all cases: relative viability (nuclei count vs DMSO), 5 days (fraction); higher = more cells survive
[1] = compound: O=C(C[C@H]1NCCC[C@@H]1O)Cn1cnc2cc(Br)c(Cl)cc2c1=O (racemic) [Halofuginone] + CC1(C)CCC(c2ccc(Cl)cc2)=C(CN2CCN(c3ccc(C(=O)NS(=O)(=O)c4ccc(N[C@H](CCN5CCOCC5)CSc5ccccc5)c(S(=O)(=O)C(F)(F)F)c4)cc3)CC2)C1 [Navitoclax] (partner 0.5 µM)
Procedure, shortened: (§1)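 Lung cancer cell lines were seeded in 1536-well plates and dosed by pin tool the next day, with either a single drug or a fixed anchor-drug dose combined with five library-drug doses (not always all listed) spaced in √10 steps. Five days later, one step fixed the cells and stained their nuclei (final 0.05% Triton X-100, 1% formaldehyde, 1 ug/ml Hoechst), and nuclei were counted on 4× images. Relative viability is the nuclei count in treated wells divided by the count in vehicle wells, and each value is the median of duplicate plates.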

Decitabine + Dasatinib = compound: Nc1ncn([C@H]2C[C@H](O)[C@@H](CO)O2)c(=O)n1 [Decitabine] + Cc1nc(Nc2ncc(C(=O)Nc3c(C)cccc3Cl)s2)cc(N2CCN(CCO)CC2)n1 [Dasatinib] (partner 0.075 µM)
Procedure, shortened: as §1

Decitabine + Olaparib = compound: Nc1ncn([C@H]2C[C@H](O)[C@@H](CO)O2)c(=O)n1 [Decitabine] + O=C(c1cc(Cc2n[nH]c(=O)c3ccccc23)ccc1F)N1CCN(C(=O)C2CC2)CC1 [Olaparib] (partner 8 µM)
Procedure, shortened: as §1

Cediranib + Foretinib = compound: COc1cc2c(Oc3ccc4[nH]c(C)cc4c3F)ncnc2cc1OCCCN1CCCC1 [Cediranib] + COc1cc2c(Oc3ccc(NC(=O)C4(C(=O)Nc5ccc(F)cc5)CC4)cc3F)ccnc2cc1OCCCN1CCOCC1 [Foretinib] (partner 0.25 µM)
Procedure, shortened: as §1

| Cell Line | relative viability ([1]; first compound 0.001 µM) | relative viability ([1]; first compound 0.003162 µM) | relative viability ([1]; first compound 0.01 µM) | relative viability ([1]; first compound 0.03162 µM) | relative viability ([1]; first compound 0.1 µM) | relative viability (Decitabine + Dasatinib; first compound 0.04 µM) | relative viability (Decitabine + Dasatinib; first compound 0.1265 µM) | relative viability (Decitabine + Dasatinib; first compound 0.4 µM) | relative viability (Decitabine + Dasatinib; first compound 1.265 µM) | relative viability (Decitabine + Dasatinib; first compound 4 µM) | relative viability (Decitabine + Olaparib; first compound 0.04 µM) | relative viability (Decitabine + Olaparib; first compound 0.1265 µM) | relative viability (Decitabine + Olaparib; first compound 0.4 µM) | relative viability (Decitabine + Olaparib; first compound 1.265 µM) | relative viability (Decitabine + Olaparib; first compound 4 µM) | relative viability (Cediranib + Foretinib; first compound 0.04 µM) | relative viability (Cediranib + Foretinib; first compound 0.1265 µM) | relative viability (Cediranib + Foretinib; first compound 0.4 µM) | relative viability (Cediranib + Foretinib; first compound 1.265 µM) | relative viability (Cediranib + Foretinib; first compound 4 µM) |
| --- | --- | --- | --- | --- | --- | --- | --- | --- | --- | --- | --- | --- | --- | --- | --- | --- | --- | --- | --- | --- |
| LC-2-ad | 0.555 | 0.469 | 0.43 | 0.459 | 0.101 | 0.416 | 0.603 | 0.404 | 0.262 | 0.261 | 0.441 | 0.402 | 0.397 | 0.343 | 0.274 | 1.12 | 0.581 | 0.883 | 1.04 | 0.891 |
| LCLC-97TM1 | 0.501 | 0.476 | 0.363 | 0.327 | 0.212 | 0.535 | 0.507 | 0.42 | 0.222 | 0.119 | 0.0932 | 0.124 | 0.0895 | 0.0603 | 0.335 | 0.969 | 0.919 | 0.946 | 0.921 | 0.967 |
| LK-2 | 0.78 | 0.979 | 0.81 | 0.931 | 0.603 | 0.406 | 0.445 | 0.227 | 0.266 | 0.301 | 0.497 | 0.38 | 0.297 | 0.211 | 0.24 | 1.43 | 0.875 | 1.23 | 1.19 | 1.01 |
| LOU-NH91 | 0.746 | 0.705 | 0.719 | 0.719 | 0.536 | 0.43 | 0.551 | 0.627 | 0.491 | 0.519 | 0.667 | 0.742 | 0.649 | 0.577 | 0.601 | 0.903 | 1.12 | 0.859 | 0.961 | 0.829 |
| LU99A | 0.794 | 0.73 | 0.763 | 0.706 | 0.665 | 0.508 | 0.615 | 0.653 | 0.481 | 0.373 | 0.247 | 0.238 | 0.217 | 0.193 | 0.187 | 0.793 | 0.728 | 0.8 | 0.769 | 0.832 |
| LXF-289 | 0.94 | 0.965 | 0.859 | 0.973 | 0.865 | 0.201 | 0.193 | 0.129 | 0.118 | 0.0831 | 0.302 | 0.255 | 0.203 | 0.157 | 0.128 | 1.02 | 0.822 | 0.912 | 0.982 | 0.936 |
| NCI-H23 | 0.893 | 0.966 | 0.795 | 0.798 | 0.377 | 0.689 | 0.653 | 0.356 | 0.271 | 0.192 | 0.229 | 0.2 | 0.166 | 0.134 | 0.154 | 1.07 |  | 0.939 | 0.863 | 1.03 |
| NCI-H322M | 1.2 | 1.26 | 1.26 | 1.24 | 1.19 | 0.246 | 0.327 | 0.299 | 0.285 | 0.349 | 0.641 | 0.684 | 0.646 | 0.47 | 0.383 | 1.15 | 1.04 | 0.946 | 0.912 | 0.922 |
| NCI-H441 | 0.607 | 0.674 | 0.562 | 0.586 | 0.34 | 0.335 | 0.266 | 0.26 | 0.211 | 0.206 | 0.151 | 0.219 | 0.157 | 0.128 | 0.136 | 1.09 |  | 0.87 | 0.794 | 1.14 |
| NCI-H460 | 1.2 | 1.3 | 1.12 | 0.232 | 0.0111 | 0.453 | 0.682 | 0.341 | 0.239 | 0.183 | 0.176 | 0.118 | 0.0739 | 0.0563 | 0.0657 | 1.01 | 1.02 | 1.02 | 0.944 | 1.04 |
| NCI-H520 | 1.18 | 1.05 | 1.03 | 0.835 | 0.346 | 0.263 | 0.242 | 0.217 | 0.239 | 0.19 | 0.201 | 0.297 | 0.251 | 0.188 | 0.167 | 0.859 | 0.656 | 0.626 | 0.731 | 0.576 |
| NCI-H596 | 0.911 | 0.912 | 0.997 | 1 | 0.606 | 0.59 | 0.585 |  | 0.508 | 0.435 | 0.609 | 0.602 | 0.353 | 0.431 | 0.56 | 1.04 | 0.833 | 0.974 |  | 0.926 |
| NCI-H647 | 1.15 | 1.09 | 1.13 | 0.829 | 0.415 | 0.212 | 0.261 | 0.196 | 0.104 | 0.0939 | 0.154 | 0.131 | 0.103 | 0.0693 | 0.0747 | 1.14 | 1.25 | 1.03 | 1.27 | 1.3 |
| NCI-H727 | 0.481 | 0.316 | 0.397 | 0.355 | 0.22 | 0.397 | 0.458 | 0.338 | 0.334 | 0.34 | 0.643 | 0.54 | 0.685 | 0.55 | 0.481 |  | 1.05 | 0.868 | 0.84 | 0.93 |
| NCI-H838 | 1.17 | 1.24 | 0.994 | 0.954 | 0.208 | 0.326 | 0.325 | 0.241 | 0.273 | 0.242 | 0.26 | 0.273 | 0.261 | 0.193 | 0.199 | 1.02 | 1.02 | 0.994 | 1.01 | 1.05 |
| NCI-H1355 | 0.929 | 0.949 | 0.902 | 1.08 | 0.715 | 0.61 | 0.6 | 0.369 | 0.276 | 0.296 | 0.33 | 0.348 | 0.245 | 0.194 | 0.195 | 0.991 | 1.02 | 0.894 | 0.948 | 1.09 |
